Laboratory results as given in BigSolDB 2.1.

CCc1nc(N)nc(N)c1-c1ccc(Cl)cc1
solubility (mole fraction)
Conditions	278.15 K	283.15 K	288.15 K	293.15 K	298.15 K	303.15 K	308.15 K	313.15 K	318.15 K
in acetone	0.0011	0.00125	0.00147	0.00171	0.0019	0.00215	0.00241	0.00272	0.0033
in acetonitrile	9.12e-05	0.000108	0.000148	0.000198	0.00027	0.000383	0.000469	0.000596	0.000765
in ethanol	0.000603	0.000809	0.000972	0.00109	0.00123	0.00147	0.00181	0.0022	0.00254
in ethyl acetate	0.00141	0.00151	0.0017	0.00194	0.00218	0.00246	0.0029	0.00334	0.00389
in isobutanol	0.000678	0.000904	0.0011	0.00125	0.0014	0.00167	0.00198	0.00238	0.00274
in isopropanol	0.000234	0.000323	0.000456	0.00057	0.000709	0.000853	0.00104	0.00125	0.00152
in isopropyl acetate	0.000583	0.000717	0.000861	0.00107	0.00129	0.00155	0.00185	0.00226	0.00259
in methanol	0.000854	0.0011	0.00131	0.00151	0.00176	0.00203	0.00237	0.00278	0.00332
in methyl acetate	0.000372	0.000482	0.000615	0.000811	0.00105	0.00127	0.00158	0.00186	0.0023
in n-butanol	0.000802	0.000993	0.00124	0.00141	0.00164	0.00192	0.00227	0.00263	0.00317
in n-propanol	0.000712	0.000936	0.00118	0.00135	0.00152	0.00179	0.00211	0.00252	0.00298
in n-propyl acetate	0.000822	0.000952	0.00111	0.00136	0.00154	0.0018	0.0021	0.00243	0.00289
in sec-butanol	0.000398	0.000554	0.000662	0.000824	0.00106	0.0013	0.00164	0.00198	0.00227
